The text below walks through data of ChEMBL document CHEMBL1138676, “Liver-selective glucocorticoid antagonists: a novel treatment for type 2 diabetes” (J Med Chem, 2004).

The structures appear in SMILES notation. pKi: −log10 of the molar value.

In experiment [1] the target is T1, Progesterone receptor (Homo sapiens, UniProt P06401).
T1 sequence (P06401 whole entry): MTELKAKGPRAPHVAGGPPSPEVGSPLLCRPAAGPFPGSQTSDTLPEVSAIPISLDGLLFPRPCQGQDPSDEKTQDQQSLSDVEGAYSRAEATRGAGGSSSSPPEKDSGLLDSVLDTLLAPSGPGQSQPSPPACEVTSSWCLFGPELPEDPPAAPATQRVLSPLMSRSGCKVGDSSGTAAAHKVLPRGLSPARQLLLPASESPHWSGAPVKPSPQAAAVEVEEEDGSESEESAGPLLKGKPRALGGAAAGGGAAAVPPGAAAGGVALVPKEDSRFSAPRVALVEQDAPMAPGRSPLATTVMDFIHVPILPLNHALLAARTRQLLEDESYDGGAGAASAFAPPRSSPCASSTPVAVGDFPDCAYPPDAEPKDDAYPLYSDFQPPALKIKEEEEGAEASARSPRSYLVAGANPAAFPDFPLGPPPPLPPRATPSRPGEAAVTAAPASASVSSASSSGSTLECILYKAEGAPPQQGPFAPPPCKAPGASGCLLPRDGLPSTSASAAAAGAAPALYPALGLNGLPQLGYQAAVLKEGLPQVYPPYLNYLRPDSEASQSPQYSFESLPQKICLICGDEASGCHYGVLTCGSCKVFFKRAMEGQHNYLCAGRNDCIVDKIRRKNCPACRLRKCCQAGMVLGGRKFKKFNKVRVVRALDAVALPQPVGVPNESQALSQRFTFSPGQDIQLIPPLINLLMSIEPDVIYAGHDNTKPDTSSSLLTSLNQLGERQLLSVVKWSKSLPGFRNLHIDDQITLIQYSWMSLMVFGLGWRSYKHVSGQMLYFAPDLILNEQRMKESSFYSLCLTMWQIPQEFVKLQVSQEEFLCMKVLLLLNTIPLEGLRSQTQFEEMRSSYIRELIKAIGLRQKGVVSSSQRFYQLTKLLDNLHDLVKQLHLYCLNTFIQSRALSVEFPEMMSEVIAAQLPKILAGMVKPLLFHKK
The experiment can be described thus: Inhibition of human progesterone receptor.

The target in experiment [2] is T2, Glucocorticoid receptor (Homo sapiens, UniProt P04150).
T2 sequence (P04150 whole entry): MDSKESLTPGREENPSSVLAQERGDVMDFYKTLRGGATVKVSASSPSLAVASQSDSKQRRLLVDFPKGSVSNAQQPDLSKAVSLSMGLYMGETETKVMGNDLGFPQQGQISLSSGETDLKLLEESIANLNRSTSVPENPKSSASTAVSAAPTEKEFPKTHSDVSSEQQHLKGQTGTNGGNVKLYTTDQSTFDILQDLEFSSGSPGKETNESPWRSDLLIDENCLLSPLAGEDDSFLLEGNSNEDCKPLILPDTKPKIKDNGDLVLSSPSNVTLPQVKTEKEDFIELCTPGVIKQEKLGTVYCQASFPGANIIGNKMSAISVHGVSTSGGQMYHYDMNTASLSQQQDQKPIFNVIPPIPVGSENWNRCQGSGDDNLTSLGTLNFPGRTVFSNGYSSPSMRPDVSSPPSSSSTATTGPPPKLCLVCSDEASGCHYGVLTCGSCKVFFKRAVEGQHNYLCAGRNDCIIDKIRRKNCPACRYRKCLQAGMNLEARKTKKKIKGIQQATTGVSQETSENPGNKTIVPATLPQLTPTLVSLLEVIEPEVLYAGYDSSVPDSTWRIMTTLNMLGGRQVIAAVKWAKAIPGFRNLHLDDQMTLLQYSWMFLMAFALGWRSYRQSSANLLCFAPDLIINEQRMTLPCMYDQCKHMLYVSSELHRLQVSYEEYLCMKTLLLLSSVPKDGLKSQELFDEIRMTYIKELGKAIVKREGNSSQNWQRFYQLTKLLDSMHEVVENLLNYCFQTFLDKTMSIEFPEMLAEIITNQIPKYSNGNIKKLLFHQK
The experiment can be described thus: Inhibition of human glucocorticoid receptor.

Experiment [3] addresses T3, Mineralocorticoid receptor (Homo sapiens, UniProt P08235).
T3 sequence (P08235 whole entry): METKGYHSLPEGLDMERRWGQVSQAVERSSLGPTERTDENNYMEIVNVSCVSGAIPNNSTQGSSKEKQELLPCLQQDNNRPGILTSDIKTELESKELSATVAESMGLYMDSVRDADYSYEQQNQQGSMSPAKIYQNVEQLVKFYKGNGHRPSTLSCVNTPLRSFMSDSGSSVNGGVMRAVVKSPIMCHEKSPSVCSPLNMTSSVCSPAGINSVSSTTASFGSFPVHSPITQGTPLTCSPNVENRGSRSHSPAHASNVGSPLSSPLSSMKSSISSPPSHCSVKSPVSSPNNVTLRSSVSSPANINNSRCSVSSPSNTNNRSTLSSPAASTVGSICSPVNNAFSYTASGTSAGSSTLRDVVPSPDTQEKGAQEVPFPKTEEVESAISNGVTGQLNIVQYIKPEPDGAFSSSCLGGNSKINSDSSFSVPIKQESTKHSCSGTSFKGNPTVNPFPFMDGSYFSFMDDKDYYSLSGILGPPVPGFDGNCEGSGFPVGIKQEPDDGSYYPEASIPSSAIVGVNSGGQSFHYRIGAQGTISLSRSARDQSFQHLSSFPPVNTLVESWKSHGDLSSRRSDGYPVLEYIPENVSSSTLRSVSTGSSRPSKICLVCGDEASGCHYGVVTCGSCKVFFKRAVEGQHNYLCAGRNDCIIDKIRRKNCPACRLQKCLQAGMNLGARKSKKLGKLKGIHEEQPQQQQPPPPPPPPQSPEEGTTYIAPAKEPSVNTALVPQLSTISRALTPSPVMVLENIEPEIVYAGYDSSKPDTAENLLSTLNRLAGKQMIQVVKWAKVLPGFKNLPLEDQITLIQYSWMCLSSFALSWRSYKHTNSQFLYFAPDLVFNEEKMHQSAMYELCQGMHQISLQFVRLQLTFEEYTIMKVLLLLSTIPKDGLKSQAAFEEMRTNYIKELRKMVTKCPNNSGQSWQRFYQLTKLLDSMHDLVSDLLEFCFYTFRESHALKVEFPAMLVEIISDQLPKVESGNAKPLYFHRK
Description: Inhibition of human Mineralocorticoid receptor

The target of experiment [4] is Glucocorticoid receptor (Rattus norvegicus) (UniProt P06536). The experiment can be described thus: Inhibition of glucocorticoid receptor mediated tyrosine amino transferase activity.
Glucocorticoid receptor (Rattus norvegicus), sequence (P06536 whole entry, looked up): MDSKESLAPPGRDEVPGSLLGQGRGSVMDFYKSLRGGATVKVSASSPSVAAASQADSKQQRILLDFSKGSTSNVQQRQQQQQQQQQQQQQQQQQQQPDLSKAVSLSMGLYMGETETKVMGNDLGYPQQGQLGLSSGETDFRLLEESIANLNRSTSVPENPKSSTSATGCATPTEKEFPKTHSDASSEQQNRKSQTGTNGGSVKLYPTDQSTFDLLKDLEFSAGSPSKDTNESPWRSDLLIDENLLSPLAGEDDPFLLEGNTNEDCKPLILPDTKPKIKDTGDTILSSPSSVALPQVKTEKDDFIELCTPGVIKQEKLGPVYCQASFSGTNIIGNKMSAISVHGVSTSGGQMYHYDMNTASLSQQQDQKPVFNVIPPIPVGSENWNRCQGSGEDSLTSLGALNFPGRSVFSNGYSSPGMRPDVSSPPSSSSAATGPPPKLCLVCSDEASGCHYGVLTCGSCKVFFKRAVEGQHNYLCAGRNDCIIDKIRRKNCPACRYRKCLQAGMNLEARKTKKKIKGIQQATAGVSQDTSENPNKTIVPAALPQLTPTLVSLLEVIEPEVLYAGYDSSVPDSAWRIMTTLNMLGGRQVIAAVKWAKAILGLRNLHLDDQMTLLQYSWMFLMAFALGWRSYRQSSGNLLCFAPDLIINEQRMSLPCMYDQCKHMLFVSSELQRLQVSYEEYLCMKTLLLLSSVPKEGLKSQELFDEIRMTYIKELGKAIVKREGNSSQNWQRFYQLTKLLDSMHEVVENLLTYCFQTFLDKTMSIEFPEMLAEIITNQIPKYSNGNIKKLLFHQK

One may read the pKi as the Ki on a negative log10 scale, so that one unit is a factor of ten. Read a low pKi as a large Ki. As for `C#C[C@]1(O)CC[C@H]2[C@@H]3CCC4=CC(=O)CCC4=C3[C@@H](c3ccc(N(C)CCCC(=O)N(C)C4CC[C@@]5(C)[C@@H](C4)C[C@@H](O)[C@@H]4[C@@H]5C[C@H](O)[C@]5(C)[C@@H]([C@H](C)CCC(=O)O)CC[C@@H]45)cc3)C[C@@]21C` (stereo partly specified), the pKi in experiment [1] is 9.02; in experiment [2] it was 9.57; in experiment [3], 6.72; in experiment [4], 7.22.

On to `C#C[C@]1(O)CC[C@H]2[C@@H]3CCC4=CC(=O)CCC4=C3[C@@H](c3ccc(N(C)C(=O)CNC(=O)OC4CC[C@@]5(C)[C@@H](C4)C[C@@H](O)[C@@H]4[C@@H]5C[C@H](O)[C@]5(C)[C@@H]([C@H](C)CCC(=O)O)CC[C@@H]45)cc3)C[C@@]21C` (stereo partly specified), for which the pKi in experiment [1] was 8.62; in experiment [2], 8.68; in experiment [3], 6.51; in experiment [4], 6.47.

For `C#C[C@]1(O)CC[C@H]2[C@@H]3CCC4=CC(=O)CCC4=C3[C@@H](c3ccc(N(C)CCOC4CC[C@@]5(C)[C@@H](C4)C[C@@H](O)[C@@H]4[C@@H]5C[C@H](O)[C@]5(C)[C@@H]([C@H](C)CCC(=O)O)CC[C@@H]45)cc3)C[C@@]21C` (stereo in doubt; form 2), the pKi was 9.09 in experiment [1], 9.57 in experiment [2], 6.36 in experiment [3] and 7.25 in experiment [4].

Regarding `C#C[C@]1(O)CC[C@H]2[C@@H]3CCC4=CC(=O)CCC4=C3[C@@H](c3ccc(N(C)CCOC4CC[C@@]5(C)[C@@H](C4)C[C@@H](O)[C@@H]4[C@@H]5C[C@H](O)[C@]5(C)[C@@H]([C@H](C)CCC(=O)NCCS(=O)(=O)O)CC[C@@H]45)cc3)C[C@@]21C` (stereo partly specified), the pKi in experiment [1] is 9.28; in experiment [2], 9.57; in experiment [3], 6.85; in experiment [4], 6.80.

With `C#C[C@]1(O)CC[C@H]2[C@@H]3CCC4=CC(=O)CCC4=C3[C@@H](c3ccc(N(C)CCOC4CC[C@@]5(C)[C@@H](C4)C[C@@H](O)[C@@H]4[C@@H]5C[C@H](O)[C@]5(C)[C@@H]([C@H](C)CCC(=O)NCC(=O)O)CC[C@@H]45)cc3)C[C@@]21C` (stereo partly specified), the pKi in experiment [1] was 9.00; in experiment [2] it was 9.38; in experiment [3], 6.29; in experiment [4], 6.74.

In the case of `C#C[C@]1(O)CC[C@H]2[C@@H]3CCC4=CC(=O)CCC4=C3[C@@H](c3ccc(N(C)C(=O)CNC(=O)O[C@@H]4C[C@@H]5CC(O)CC[C@]5(C)[C@H]5C[C@H](O)[C@]6(C)[C@@H]([C@H](C)CCC(=O)O)CC[C@H]6[C@H]45)cc3)C[C@@]21C` (stereo partly specified), the pKi in experiment [1] was 8.36; in experiment [2], 8.96; in experiment [3] it was under 6.00; in experiment [4], 6.64.

Turning to `C#C[C@]1(O)CC[C@H]2[C@@H]3CCC4=CC(=O)CCC4=C3[C@@H](c3ccc(N(C)CCCOC4CC[C@@]5(C)[C@@H](C4)C[C@@H](O)[C@@H]4[C@@H]5C[C@H](O)[C@]5(C)[C@@H]([C@H](C)CCC(=O)O)CC[C@@H]45)cc3)C[C@@]21C` (stereo partly specified), the pKi is 8.96 in experiment [1], 9.66 in experiment [2], 7.10 in experiment [3] and 7.00 in experiment [4].

Consider `C#C[C@]1(O)CC[C@H]2[C@@H]3CCC4=CC(=O)CCC4=C3[C@@H](c3ccc(N(C)C(=O)CC[C@H](NC(=O)CC[C@@H](C)[C@H]4CC[C@H]5[C@@H]6[C@H](O)C[C@@H]7C[C@H](O)CC[C@]7(C)[C@H]6C[C@H](O)[C@]45C)C(=O)O)cc3)C[C@@]21C`, for which the pKi in experiment [1] is 8.92; in experiment [2] it was 8.52; in experiment [3], 6.23; in experiment [4], 6.46.

As for `C#C[C@]1(O)CC[C@H]2[C@@H]3CCC4=CC(=O)CCC4=C3[C@@H](c3ccc(N(C)CCNC(=O)OC4CC[C@@]5(C)[C@@H](C4)C[C@@H](O)[C@@H]4[C@@H]5C[C@H](O)[C@]5(C)[C@@H]([C@H](C)CCC(=O)O)CC[C@@H]45)cc3)C[C@@]21C` (stereo partly specified), the pKi in experiment [1] was 9.41; in experiment [2] it was 9.41; in experiment [3], under 6.00; in experiment [4] it was 6.48.

In the case of `C#C[C@]1(O)CC[C@H]2[C@@H]3CCC4=CC(=O)CCC4=C3[C@@H](c3ccc(N(C)CCC[C@H]4[C@H](O)CC[C@@]5(C)[C@@H]4C[C@@H](O)[C@@H]4[C@@H]5C[C@H](O)[C@]5(C)[C@@H]([C@H](C)CCC(=O)O)CC[C@@H]45)cc3)C[C@@]21C`, the pKi in experiment [1] was 8.68; in experiment [2], 9.10; in experiment [3] it was under 6.00; in experiment [4], 6.47.

Regarding `C#C[C@]1(O)CC[C@H]2[C@@H]3CCC4=CC(=O)CCC4=C3[C@@H](c3ccc(N(C)CCCS(=O)(=O)N(C)C4CC[C@@]5(C)[C@@H](C4)C[C@@H](O)[C@@H]4[C@@H]5C[C@H](O)[C@]5(C)[C@@H]([C@H](C)CCC(=O)O)CC[C@@H]45)cc3)C[C@@]21C` (stereo partly specified), the pKi in experiment [1] was 8.72; in experiment [2], 9.38; in experiment [3], 6.52; in experiment [4], 7.22.

For the molecule `C#C[C@]1(O)CC[C@H]2[C@@H]3CCC4=CC(=O)CCC4=C3[C@@H](c3ccc(N(C)C(C)=O)cc3)C[C@@]21C`, the pKi in experiment [1] was 8.19; in experiment [2] it was 9.40; in experiment [3], under 6.00.

Regarding `C#C[C@]1(O)CC[C@H]2[C@@H]3CCC4=CC(=O)CCC4=C3[C@@H](c3ccc(N(C)CCOCCO[C@H]4CC[C@@]5(C)[C@@H](C4)C[C@@H](O)[C@@H]4[C@@H]5C[C@H](O)[C@]5(C)[C@@H]([C@H](C)CCC(=O)O)CC[C@@H]45)cc3)C[C@@]21C`, the pKi in experiment [1] is 9.32; in experiment [2] it was 9.77; in experiment [3] it was 6.82; in experiment [4] it was 7.25.
